From PubChem BioAssay AID248 (DTP/NCI, 2004)
Inconclusive results and toxic doses are left out. Rule as the data show it: active = T/C of 150% or more; inactive = T/C below 125%.

Tested on: L1210 leukemia ip in BDF1 mice, survival T/C
Test: NCI In Vivo Anticancer Drug Screen. Data for tumor model L1210 Leukemia (intraperitoneal) in B6D2F1 (BDF1) mice
Conditions: endpoint: mean survival time, higher = longer survival
Procedure, shortened: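 Mice bearing the transplanted tumor received compound or vehicle. Survival of the treated group was divided by that of the vehicle-treated control group to give the ratio.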

[1] = dose: 100.0 mg/kg/injection, schedule: Q01DX009 (ip), vehicle: Klucel (hydroxypropylcellulose) (HPC)
[2] = dose: 100.0 mg/kg/injection, schedule: Q04DX003 (ip), vehicle: Klucel (hydroxypropylcellulose) (HPC)
[3] = dose: 200.0 mg/kg/injection, schedule: Q01DX009 (ip), vehicle: Klucel (hydroxypropylcellulose) (HPC)
[4] = dose: 200.0 mg/kg/injection, schedule: Q04DX003 (ip), vehicle: Klucel (hydroxypropylcellulose) (HPC)
[5] = dose: 400.0 mg/kg/injection, schedule: Q01DX009 (ip), vehicle: Klucel (hydroxypropylcellulose) (HPC)
[6] = dose: 400.0 mg/kg/injection, schedule: Q04DX003 (ip), vehicle: Klucel (hydroxypropylcellulose) (HPC)
[7] = dose: 100.0 mg/kg/injection, schedule: Q01DX001 (ip), vehicle: saline
[8] = dose: 200.0 mg/kg/injection, schedule: Q01DX001 (ip), vehicle: saline
[9] = dose: 100.0 mg/kg/injection, schedule: Q04DX003 (ip), vehicle: saline
[10] = dose: 200.0 mg/kg/injection, schedule: Q04DX003 (ip), vehicle: saline

Measured: T/C

COc1ccc(Br)c(CCC(C)C)c1OC
inactive: [1] 92 % of control | [2] 108 % of control | [3] 95 % of control | [4] 108 % of control | [5] 101 % of control | [6] 104 % of control

CCc1cccc(CC)c1NC(=O)c1ccccc1Cl
inactive: dose: 100.0 mg/kg/injection, schedule: Q04DX002 (ip), vehicle: Klucel (hydroxypropylcellulose) (HPC) 102 % of control | dose: 200.0 mg/kg/injection, schedule: Q04DX002 (ip), vehicle: Klucel (hydroxypropylcellulose) (HPC) 97 % of control | dose: 400.0 mg/kg/injection, schedule: Q04DX002 (ip), vehicle: Klucel (hydroxypropylcellulose) (HPC) 94 % of control

CNC(=O)C(c1ccccc1)C(F)(F)F (stereo not given)
inactive: dose: 100.0 mg/kg/injection, schedule: Q01DX001 (ip), vehicle: saline with Tween-80 97 % of control | dose: 200.0 mg/kg/injection, schedule: Q01DX001 (ip), vehicle: saline with Tween-80 109 % of control | dose: 400.0 mg/kg/injection, schedule: Q01DX001 (ip), vehicle: saline with Tween-80 105 % of control

Cc1c(C)c2cc3ccc(Cl)cc3nc2c2ccccc12
inactive: [2] 103 % of control | [4] 105 % of control | [6] 110 % of control

CCCCOC(=O)C(C(=O)OCCCC)(C(=O)OCCCC)C(C(=O)OCCCC)(C(=O)OCCCC)C(=O)OCCCC
inactive: dose: 50.0 mg/kg/injection, schedule: Q01DX001 (ip), vehicle: saline 101 % of control | [7] 111 % of control | [8] 104 % of control

CN1CCCC(C)(CN2c3ccccc3Sc3ccccc32)C1 (stereo not given)
inactive: [9] 111 % of control | [10] 105 % of control

N#CC(c1ccccc1)C(c1ccccc1)C(C(=O)c1ccccc1)c1ccccc1 (stereo not given)
inactive: dose: 100.0 mg/kg/injection, schedule: Q01DX009 (ip), vehicle: saline with Tween-80 100 % of control | dose: 200.0 mg/kg/injection, schedule: Q01DX009 (ip), vehicle: saline with Tween-80 93 % of control | dose: 400.0 mg/kg/injection, schedule: Q01DX009 (ip), vehicle: saline with Tween-80 90 % of control

Cc1cc(Cl)nc2ccc(Cc3ccc4nc(Cl)cc(C)c4c3)cc12
inactive: [7] 91 % of control | [8] 94 % of control | dose: 400.0 mg/kg/injection, schedule: Q01DX001 (ip), vehicle: saline 96 % of control

O=C(C=C(C(F)(F)F)C(F)(F)F)c1ccccc1Cl
inactive: dose: 12.5 mg/kg/injection, schedule: Q04DX003 (ip), vehicle: saline with Tween-80 97 % of control | dose: 25.0 mg/kg/injection, schedule: Q04DX003 (ip), vehicle: saline with Tween-80 86 % of control | dose: 50.0 mg/kg/injection, schedule: Q04DX003 (ip), vehicle: saline with Tween-80 100 % of control

COc1ccc(N)c(CC2c3ccccc3CCN2C)c1 (stereo not given)
inactive: dose: 10.0 mg/kg/injection, schedule: Q01DX001 (ip), vehicle: carboxymethylcellulose (CMC) 103 % of control | dose: 20.0 mg/kg/injection, schedule: Q01DX001 (ip), vehicle: carboxymethylcellulose (CMC) 105 % of control | dose: 40.0 mg/kg/injection, schedule: Q01DX001 (ip), vehicle: carboxymethylcellulose (CMC) 105 % of control | dose: 80.0 mg/kg/injection, schedule: Q01DX001 (ip), vehicle: carboxymethylcellulose (CMC) 100 % of control | dose: 100.0 mg/kg/injection, schedule: Q01DX001 (ip), vehicle: carboxymethylcellulose (CMC) 96 % of control

CCOC(=O)C(=CC(CC)C(=O)OCC)C(=O)OCC (stereo not given) (tested in a mixture with another compound)
inactive: [9] 93 % of control | [10] 93 % of control | dose: 400.0 mg/kg/injection, schedule: Q04DX003 (ip), vehicle: saline 89 % of control

N#Cc1c(N)n(C2OC(CO)C(O)C2O)c2ncnc(N)c12 (stereo not given)
inactive: dose: 1.0 mg/kg/injection, schedule: Q01DX005 (ip), vehicle: saline 115 % of control | dose: 2.0 mg/kg/injection, schedule: Q01DX005 (ip), vehicle: saline 120 % of control

CC(C)=NC(=O)NO.[Cl][Ni][Cl]
inactive: dose: 15.0 mg/kg/injection, schedule: Q01DX001 (ip), vehicle: saline 102 % of control | dose: 30.0 mg/kg/injection, schedule: Q01DX001 (ip), vehicle: saline 110 % of control | dose: 60.0 mg/kg/injection, schedule: Q01DX001 (ip), vehicle: saline 111 % of control | dose: 75.0 mg/kg/injection, schedule: Q01DX001 (ip), vehicle: saline 116 % of control

CCOC(=O)/C(Br)=C/SCCN
inactive: dose: 100.0 mg/kg/injection, schedule: Q01DX009 (ip), vehicle: saline 97 % of control | dose: 200.0 mg/kg/injection, schedule: Q01DX009 (ip), vehicle: saline 92 % of control | dose: 400.0 mg/kg/injection, schedule: Q01DX009 (ip), vehicle: saline 91 % of control

Fc1c(F)c(F)c(S/C=C/c2ccccc2)c(F)c1F
inactive: dose: 100.0 mg/kg/injection, schedule: Q01DX001 (ip), vehicle: Klucel (hydroxypropylcellulose) (HPC) 96 % of control | dose: 200.0 mg/kg/injection, schedule: Q01DX001 (ip), vehicle: Klucel (hydroxypropylcellulose) (HPC) 118 % of control | dose: 400.0 mg/kg/injection, schedule: Q01DX001 (ip), vehicle: Klucel (hydroxypropylcellulose) (HPC) 105 % of control

C[Si](C)(C)N1N=NC2C(=O)N(c3ccccc3)C(=O)C21 (stereo not given)
inactive: [1] 105 % of control | [2] 92 % of control | [3] 110 % of control | [4] 102 % of control | [5] 112 % of control | [6] 103 % of control
